Experimental data reported in PubChem BioAssay (NCI).
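Step 1: Grow cells in 96-well plates. Step 2: Expose to compound for 48 hours at 5 concentrations. Step 3: Interpolate endpoints linearly; if unreached, use highest concentration. At the GI50, growth is halved. TGI: total growth inhibition.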

Tests used:
Assay in all cases: NCI tumour cell line growth inhibition, 48 h
[1] = test system: P388/ADR leukemia
[2] = test system: T-47D breast
[3] = test system: PC-3 prostate
[4] = test system: ACHN renal
[5] = test system: M14 melanoma
[6] = test system: LOX IMVI melanoma
[7] = test system: M19-MEL melanoma
[8] = test system: SF-295 CNS
[9] = test system: BT-549 breast
[10] = test system: MDA-MB-435
[11] = test system: KM20L2 colon
[12] = test system: SF-539 CNS
[13] = test system: SK-MEL-5 melanoma
[14] = test system: 786-0 renal
[15] = test system: KM12 colon
[16] = test system: HCT-15 colon
[17] = test system: UACC-257 melanoma
[18] = test system: MOLT-4 leukemia
[19] = test system: SN12C renal
[20] = test system: SK-MEL-28 melanoma
[21] = test system: P388 leukemia
[22] = test system: HS 578T breast
[23] = test system: HL-60(TB) leukemia
[24] = test system: TK-10 renal
[25] = test system: NCI-H23 lung
[26] = test system: OVCAR-3 ovarian
[27] = test system: MDA-N
[28] = test system: OVCAR-8 ovarian
[29] = test system: SNB-19 CNS
[30] = test system: HCT-116 colon
[31] = test system: HOP-18 NSCLC
[32] = test system: DMS 114 small cell lung
[33] = test system: A549 NSCLC
[34] = test system: MCF7 breast
[35] = test system: UO-31 renal
[36] = test system: CAKI-1 renal
[37] = test system: CCRF-CEM leukemia
[38] = test system: RPMI-8226 leukemia
[39] = test system: SF-268 CNS
[40] = test system: DMS 273 small cell lung
[41] = test system: SW-620 colon
[42] = test system: OVCAR-5 ovarian
[43] = test system: SN12K1 renal
[44] = test system: COLO 205 colon
[45] = test system: OVCAR-4 ovarian
[46] = test system: EKVX NSCLC
[47] = test system: IGROV1 ovarian
[48] = test system: DLD-1 colon
[49] = test system: MALME-3M melanoma
[50] = test system: A498 renal
[51] = test system: SK-OV-3 ovarian
[52] = test system: NCI/ADR-RES ovarian
[53] = test system: SK-MEL-2 melanoma
[54] = test system: NCI-H226 lung
[55] = test system: NCI-H522 lung
[56] = test system: HT29 colon
[57] = test system: SNB-78 CNS
[58] = test system: K-562 leukemia
[59] = test system: RXF 393 renal
[60] = test system: XF 498 CNS
[61] = test system: U251 CNS
[62] = test system: MDA-MB-231 breast
[63] = test system: SNB-75 CNS
[64] = test system: UACC-62 melanoma
[65] = test system: NCI-H460 lung
[66] = test system: HOP-92 NSCLC
[67] = test system: HCC-2998 colon
[68] = test system: HOP-62 NSCLC
[69] = test system: DU-145 prostate

Q: Which results are given for `O=C(O)CC(NC(=O)CP(=O)(O)O)C(=O)O` (stereo not given)?
A: TGI [1]: > 8.35 mM; TGI [2]: > 10 mM; TGI [3]: > 10 mM; TGI [4]: > 10 mM; TGI [5]: > 10 mM; TGI [6]: 0.824 mM; TGI [7]: > 10 mM; TGI [8]: > 10 mM; TGI [9]: > 10 mM; GI50 [10]: 0.0488 mM; TGI [10]: > 10 mM; TGI [11]: > 10 mM; GI50 [12]: 0.0895 mM; TGI [12]: > 10 mM; TGI [13]: > 10 mM; GI50 [14]: 0.071 mM; TGI [14]: > 6 mM; GI50 [15]: 0.0955 mM; TGI [15]: > 10 mM; TGI [16]: 9.16 mM; GI50 [17]: 3.15 mM; TGI [17]: > 10 mM; TGI [18]: 6.91 mM; TGI [19]: > 9.02 mM; GI50 [20]: 0.389 mM; TGI [20]: > 10 mM; TGI [21]: > 5.86 mM; GI50 [22]: 0.0745 mM; TGI [22]: > 10 mM; TGI [23]: > 10 mM; TGI [24]: > 10 mM; TGI [25]: > 10 mM; TGI [26]: > 10 mM; GI50 [27]: 0.0541 mM; TGI [27]: > 10 mM; TGI [28]: > 8.11 mM; GI50 [29]: 0.0726 mM; TGI [29]: > 10 mM; GI50 [30]: 0.0546 mM; TGI [30]: > 10 mM; TGI [31]: > 9.69 mM; TGI [32]: > 10 mM; GI50 [33]: 0.0957 mM; TGI [33]: 4.25 mM; TGI [34]: > 10 mM; TGI [35]: > 10 mM; GI50 [36]: 0.272 mM; TGI [36]: 7.24 mM; TGI [37]: > 10 mM; TGI [38]: > 10 mM; GI50 [39]: 0.0958 mM; TGI [39]: > 10 mM; TGI [40]: > 9.02 mM; TGI [41]: > 10 mM; TGI [42]: > 10 mM; TGI [43]: > 10 mM; TGI [44]: > 10 mM; TGI [45]: > 10 mM; TGI [46]: 7.86 mM; TGI [47]: > 8.28 mM; TGI [48]: 9.92 mM; TGI [49]: > 8.47 mM; TGI [50]: > 9.87 mM; TGI [51]: > 7.93 mM; TGI [52]: > 10 mM; TGI [53]: > 10 mM; TGI [54]: 7.21 mM; GI50 [55]: 0.0783 mM; TGI [55]: 9.91 mM; TGI [56]: > 10 mM; TGI [57]: > 10 mM; TGI [58]: > 10 mM; GI50 [59]: 0.0905 mM; TGI [59]: > 10 mM; TGI [60]: > 3.16 mM; TGI [61]: > 10 mM; TGI [62]: > 10 mM; TGI [63]: > 10 mM; TGI [64]: 6.64 mM; GI50 [65]: 0.0795 mM; TGI [65]: > 8.67 mM; TGI [66]: 2.38 mM; TGI [67]: > 10 mM; TGI [68]: 3.76 mM; TGI [69]: > 10 mM
